Data published in US8273778B2, “Inhibitors of UDP-galactopyranose mutase thwart mycobacterial growth” (Wisconsin Alumni Research Foundation, priority 2008, dated 2012).
Like-named read-outs stand apart in the source and are kept apart here.

Key:
UGMmyco = UGMmyco (Mycobacterium tuberculosis, UniProt P9WIQ1); assay: HPLC assay of UGMmyco conversion of UDP-galactofuranose to UDP-galactopyranose (inhibition, kinetics); assay type: biochemical; settings: initial rates at various UDP-Galf, 25 or 50 μM inhibitor, 11 nM UGMmyco, pH 7
Sequence of UGMmyco (P9WIQ1 whole entry): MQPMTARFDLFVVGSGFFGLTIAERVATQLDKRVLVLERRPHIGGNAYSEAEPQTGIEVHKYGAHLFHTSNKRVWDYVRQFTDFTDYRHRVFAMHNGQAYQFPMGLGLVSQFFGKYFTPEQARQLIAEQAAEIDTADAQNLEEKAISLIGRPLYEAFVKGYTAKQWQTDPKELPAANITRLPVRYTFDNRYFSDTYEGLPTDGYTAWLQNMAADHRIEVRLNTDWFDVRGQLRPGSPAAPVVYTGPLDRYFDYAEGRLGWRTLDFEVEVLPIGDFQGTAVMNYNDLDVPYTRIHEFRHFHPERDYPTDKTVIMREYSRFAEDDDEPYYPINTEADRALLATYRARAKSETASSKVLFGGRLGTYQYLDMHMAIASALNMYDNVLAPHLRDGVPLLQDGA
Description: UGMmyco inhibition was assessed using a previously described HPLC assay to measure the extent of enzymatic conversion of UDP-galactofuranose to UDP-galactopyranose. (Carlson, E. E.; May, J. F.; Kiessling, L. L. Chem. Biol. 2006, 13, 825-837.)
The relative activity of UGMmyco in the presence of DMSO alone was compared to that in the presence of 50 μM of selected aminothiazoles. Enzymatic reaction conditions were as follows: 50 μM UDP-Galf, 4 μM UGMmyco and 20 mM DTT in 4% DMSO v/v. The mean activities of UGMmyco in the presence of the aminothiazoles are presented in order of decreasing binding affinities to highlight the relationship between enzyme inhibition and binding affinity.
The inhibition curves look similar to the binding curves depicted in FIGS. 5A and 5B. […] In the graphs of these figures, conversion is the amount of UDP-Galp formed divided by the amount of total UDP-Gal (UDP-Galp+UDP-Galf). The data were fit to the equation as previously described. (Soltero-Higgin, M.; Carlson, E. E.; Phillips, J. H.; Kiessling, L. L., Identification of inhibitors for UDP-galactopyranose mutase. J. Am. Chem. Soc. 2004, 126, 10532-10533.)
For inhibitor kinetic assays, the initial rate of UGMmyco was determined at various UDP-Galf concentrations in the presence of either DMSO alone (4% v/v), 25 μM inhibitor, or 50 μM inhibitor. […] Product formation was analyzed using a HPLC-based assay. […]

[1] = target: T1, UGM from Mycobacterium tuberculosis (UGMmyco) (Mycobacterium tuberculosis, UniProt P9WIQ1); assay: Fluorescence polarization binding / inhibition assay, UGMmyco
T1 sequence (P9WIQ1 whole entry): as above
Description: (§1) Serial dilutions of dialyzed UGM (maximum concentration was typically 30 μM) was incubated with 15 nM of fluorescent compounds 5a-5f, 6 or 11 in 50 mM sodium phosphate buffer, pH 7.0 at 25° C. Final volumes were 30 μL in 384 well black microtiter plates (Costar). Fluorescence polarization was analyzed using a Wallac EnVision plate reader. Data were fit to y=m1+((m2−m1)*x^m3)/(m4^m3+x^m3); m2=maximum FP signal, m1=minimum FP signal, m3=slope, m4=binding constant (KaleidaGraph, Synergy Software).
The fluorescence polarization inhibition assay was performed as previously described (22). Reactions contained 580 nM UGMmyco or 500 nM UGMkleb and 15 nM of the fluorescent probe 5c in 50 mM sodium phosphate buffer, pH 7.0 at 25° C. Final volumes were 30 μL in 384 well black microtiter plates (Costar). Serial dilutions of UDP, 4d or 7 were added to the wells. Fluorescence polarization was analyzed using a Wallac EnVision plate reader. Data were fit to y=m1+((m2−m1)*x^m3)/(m4^m3+x^m3); m2=maximum FP signal, m1=minimum FP signal, m3=slope, m4=apparent binding constant (KaleidaGraph, Synergy Software). […]. FIGS. 13A and 13B are graphs illustrating determination of Kd for compound II for UGMmyco (FIG. 13A) and UGMkleb (FIG. 13B).

[2] = target: T2, UGM from Klebsiella pneumoniae (UGMkleb) (Klebsiella pneumoniae, UniProt Q48485); assay: Fluorescence polarization binding / inhibition assay, UGMkleb
T2 sequence (Q48485 24-384): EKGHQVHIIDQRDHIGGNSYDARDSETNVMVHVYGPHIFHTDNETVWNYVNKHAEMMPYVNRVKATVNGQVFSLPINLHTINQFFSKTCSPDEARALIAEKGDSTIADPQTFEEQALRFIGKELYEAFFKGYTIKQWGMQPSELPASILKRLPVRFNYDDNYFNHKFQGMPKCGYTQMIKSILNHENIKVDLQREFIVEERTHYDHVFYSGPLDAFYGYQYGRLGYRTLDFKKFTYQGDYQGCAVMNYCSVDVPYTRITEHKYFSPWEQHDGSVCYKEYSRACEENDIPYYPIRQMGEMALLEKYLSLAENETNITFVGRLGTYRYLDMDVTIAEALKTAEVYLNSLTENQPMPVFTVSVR
Description: as §1
The fluorescence polarization inhibition assay was performed as previously described (22). Reactions contained 580 nM UGMmyco or 500 nM UGMkleb and 15 nM of the fluorescent probe 5c in 50 mM sodium phosphate buffer, pH 7.0 at 25° C. Final volumes were 30 μL in 384 well black microtiter plates (Costar). Serial dilutions of UDP, 4d or 7 were added to the wells. Fluorescence polarization was analyzed using a Wallac EnVision plate reader. Data were fit to y=m1+((m2−m1)*x^m3)/(m4^m3+x^m3); m2=maximum FP signal, m1=minimum FP signal, m3=slope, m4=apparent binding constant (KaleidaGraph, Synergy Software). To determine Kd values, the apparent binding constant was then subjected to Kapp=Kd(1+(I)/KI), where I=concentration of the fluorescent probe and KI=binding affinity of the fluorescent probe to UGM. […] FIGS. 13A and 13B are graphs illustrating determination of Kd for compound II for UGMmyco (FIG. 13A) and UGMkleb (FIG. 13B).

UGM = assay: Fluorescence polarization assay, UGM homolog not specified (UGMkleb or UGMmyco); assay type: binding; settings: concentrations up to 34 μM of either UGMmyco or UGMkleb
[3] = target: T2, UGM from Klebsiella pneumoniae (UGMkleb); settings: previous work; read-out: affinity of the probe for UGMkleb; cited from earlier work
[4] = target: T1, UGM from Mycobacterium tuberculosis (UGMmyco); settings: previous work; read-out: affinity of the probe for UGMmyco; cited from earlier work
[5] = Kd (UMGmyco) [μM], Table 2, 50 mM sodium phosphate pH 7.0, 25° C.
[6] = Table 2, 50 mM sodium phosphate pH 7.0, 25° C., read-out: Kd (UMGkleb)
[7] = Table 2, 50 mM sodium phosphate pH 7.0, 25° C., read-out: Kd (UMGmyco)
[8] = Kd (UMGkleb) [μM], Table 2, 50 mM sodium phosphate pH 7.0, 25° C.
[9] = Table 1, UDP-fluorescein conjugates by linker length n, read-out: UGMmyco Kd

Compound	Kd [1, 5] [µM]	Kd [2, 6] [µM]	Kd [1, 7] [µM]	Kd [1, 9] [µM]	other results
O=C(O)C(Cc1ccc(Cl)cc1)Nc1nc(-c2ccc(Cl)cc2Cl)cs1 (stereo not drawn)					Ki (UGMmyco): 5300 nM
O=C(O)c1cc(NC(=S)NCCOP(=O)(O)OP(=O)(O)OCC2OC(n3ccc(=O)[nH]c3=O)C(O)C2O)ccc1-c1c2ccc(=O)cc-2oc2cc(O)ccc12 (stereo not drawn) [Compound 5a, UDP-ethanolamine-fluorescein conjugate]	> 30	> 30			Kd ([1]; UGMmyco Kd (μM), Table 1, UDP-fluorescein conjugates by linker length n): > 30 µM
O=C(O)c1cc(NC(=S)NCCOCCOCCOP(=O)(O)OP(=O)(O)OCC2OC(n3ccc(=O)[nH]c3=O)C(O)C2O)ccc1-c1c2ccc(=O)cc-2oc2cc(O)ccc12 (stereo not drawn) [Compound 5f, UDP-3,6-dioxa-octanolamine-fluorescein conjugate]	0.575 ± 0.016	0.767 ± 0.017			fold lower affinity than compound 5d ([1]; UGMmyco, relative to 5d (eight methylene linker)): more than 10 fold; fold greater affinity than UDP ([1]; UGMmyco, relative to UDP): 20 fold
O=C(O)c1cc(NC(=S)NCCOCCOCCOCCOP(=O)(O)OP(=O)(O)OCC2OC(n3ccc(=O)[nH]c3=O)C(O)C2O)ccc1-c1c2ccc(=O)cc-2oc2cc(O)ccc12 (stereo not drawn) [Compound 5g, UDP-3,6,9-trioxa-undecanolamine-fluorescein conjugate]	1.07 ± 0.1	1.2 ± 0.14			
O=C(O)c1cc(NC(=S)NCCCCCCCCO)ccc1-c1c2ccc(=O)cc-2oc2cc(O)ccc12 [Compound 6, Octanolamine-fluorescein conjugate]			> 30		binding of fluorophore alone (UGM): no binding was observed; Kd [2, 8]: > 30 µM
O=c1ccn(C2OC(COP(=O)([O-])OP(=O)(O)OCCCCCCCCNC(=S)Nc3cccc4ccccc34)C(O)C2O)c(=O)[nH]1.[Na+] (stereo not drawn) [Compound 7, UDP-octanolamine-naphthyl conjugate]	0.61 ± 0.109	0.583 ± 0.036			
O=C(O)c1cc(NC(=S)NCCCCCCCCc2ccc(-c3csc(NC(Cc4ccc(Cl)cc4)C(=O)O)n3)cc2)ccc1-c1c2ccc(=O)cc-2oc2cc(O)ccc12 (stereo not drawn) [Compound 11, Aminothiazole-fluorescein conjugate]			0.295 ± 0.066		Kd ([1]; read-out: Kd / affinity for UGMmyco): 0.3 µM; Kd [2, 8]: 0.385 ± 0.035 µM; Kd ([2]; Kd / affinity for UGMkleb): 0.38 µM
O=c1ccn([C@@H]2O[C@H](COP(=O)(O)OP(=O)(O)O)[C@@H](O)[C@H]2O)c(=O)[nH]1 [UDP, uridine 5′-diphosphate, reference compound]	15.1 ± 1.7	26 ± 1.7			Kd ([1]; Kd / affinity for UGMmyco): 15 µM; Kd ([2]; read-out: Kd / affinity for UGMkleb): 26 µM
UDP-butanolamine-fluorescein conjugate [Compound 5b]		1.94 ± 0.15	2.51 ± 0.28	2.5	
UDP-decanolamine-fluorescein conjugate [Compound 5e]		0.07 ± 0.002	0.064 ± 0.004	0.064	
UDP-hexanolamine-fluorescein conjugate [Compound 5c]		0.193 ± 0.011	0.166 ± 0.014	0.17	Kd [3]: 100 nM; Kd [4]: 160 nM
UDP-octanolamine-fluorescein conjugate [Compound 5d]		0.045 ± 0.002	0.054 ± 0.006	0.054	
Uridine 5′-diphosphooctanolamine, ammonium salt [Compound 4d]		37.7 ± 1.5	32 ± 3.4		
